# From patent US20210253575A1, “PYRROLIDINE AMINE COMPOUNDS FOR THE TREATMENT OF AUTOIMMUNE DISEASE” (Hoffmann-La Roche Inc., priority 2018, published 2021)
# Target: T1, human TLR8 (Homo sapiens, UniProt Q9NR97)
# T1 sequence (Q9NR97 27-1041): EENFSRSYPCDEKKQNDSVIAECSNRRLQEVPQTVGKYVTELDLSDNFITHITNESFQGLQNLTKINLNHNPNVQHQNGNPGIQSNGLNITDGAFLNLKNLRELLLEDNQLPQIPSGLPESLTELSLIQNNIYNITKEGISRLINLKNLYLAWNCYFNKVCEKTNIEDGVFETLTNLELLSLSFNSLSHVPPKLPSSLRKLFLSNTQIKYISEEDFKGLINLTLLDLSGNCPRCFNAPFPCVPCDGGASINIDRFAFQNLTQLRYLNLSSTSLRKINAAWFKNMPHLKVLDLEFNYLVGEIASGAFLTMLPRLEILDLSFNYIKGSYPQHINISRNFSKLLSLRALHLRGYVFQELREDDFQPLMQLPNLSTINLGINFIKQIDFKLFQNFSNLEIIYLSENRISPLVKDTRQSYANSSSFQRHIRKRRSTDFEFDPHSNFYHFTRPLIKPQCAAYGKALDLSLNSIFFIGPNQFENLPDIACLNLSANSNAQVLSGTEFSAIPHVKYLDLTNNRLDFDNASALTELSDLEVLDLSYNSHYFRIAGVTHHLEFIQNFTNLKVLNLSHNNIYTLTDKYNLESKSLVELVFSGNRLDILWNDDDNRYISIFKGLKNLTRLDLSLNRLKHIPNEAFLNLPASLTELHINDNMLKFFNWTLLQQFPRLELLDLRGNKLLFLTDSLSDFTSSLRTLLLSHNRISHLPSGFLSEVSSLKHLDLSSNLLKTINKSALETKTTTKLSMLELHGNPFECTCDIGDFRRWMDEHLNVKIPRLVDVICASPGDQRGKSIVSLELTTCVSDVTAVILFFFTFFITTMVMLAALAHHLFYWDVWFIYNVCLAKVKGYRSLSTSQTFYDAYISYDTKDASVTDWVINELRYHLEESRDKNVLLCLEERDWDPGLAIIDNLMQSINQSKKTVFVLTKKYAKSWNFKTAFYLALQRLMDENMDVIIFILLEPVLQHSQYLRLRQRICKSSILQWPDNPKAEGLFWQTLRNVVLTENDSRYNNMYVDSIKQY
# Assay: HEK293-Blue-hTLR-8 cells assay (SEAP reporter, R848 stimulation)
# Type: cell-based
# Settings: HEK293-Blue-hTLR8 cells, R848 ligand, 20 hrs incubation
# Method: The following tests were carried out in order to determine the activity of the compounds of formula (I) in HEK293-Blue-hTLR-7/8/9 cells assay.
# HEK293-Blue-hTLR-8 Cells Assay:
# A stable HEK293-Blue-hTLR-8 cell line was purchased from InvivoGen (Cat. #: hkb-htlr8, San Diego, Calif., USA). These cells were originally designed for studying the stimulation of human TLR8 by monitoring the activation of NF-κB. A SEAP (secreted embryonic alkaline phosphatase) reporter gene was placed under the control of the IFN-β minimal promoter fused to five NF-κB and AP-1-binding sites. The SEAP was induced by activating NF-κB and AP-1 via stimulating HEK-Blue hTLR8 cells with TLR8 ligands. Therefore the reporter expression was declined by TLR8 antagonist under the stimulation of a ligand, such as R848, for incubation of 20 hrs. The cell culture supernatant SEAP reporter activity was determined using QUANTI-Blue™ kit (Cat. #: rep-qb1, Invivogen, San Diego, Ca, USA) at a wavelength of 640 nm, a detection medium that turns purple or blue in the presence of alkaline phosphatase.
# HEK293-Blue-hTLR8 cells were incubated at a density of 250,000˜450,000 cells/mL in a volume of 170 μL in a 96-well plate in Dulbecco's Modified Eagle's medium (DMEM) containing 4.5 g/L glucose, 50 U/mL penicillin, […], […], 2 mM L-glutamine, 10% (v/v) heat-inactivated fetal bovine serum with addition of 20 μL test compound in a serial dilution in the presence of final DMSO at 1% and 10 μL of 60 uM R848 in above DMEM, perform incubation under 37° C. in a CO2 incubator for 20 hrs. Then 20 μL of the supernatant from each well was incubated with 180 μL Quanti-blue substrate solution at 37° C. for 2 hrs and the absorbance was read at 620-655 nm using a spectrophotometer. The signalling pathway that TLR8 activation leads to downstream NF-κB activation has been widely accepted, and therefore similar reporter assay was modified for evaluating TLR8 antagonist.
row,Structure (SMILES),IC50 [nM]
1,"N#Cc1ccc(N2C[C@H](CN3CC4(CC(N)C4)C3)[C@@H](C(F)(F)F)C2)c2nccnc12 [Example 47, 8-[(3S,4R)-3-[(6-amino-2-azaspiro[3.3]heptan-2-yl)methyl]-4-(trifluoromethyl)pyrrolidin-1-yl]quinoxaline-5-carbonitrile]",74
2,"CC1(CN)CCCN(C[C@H]2CN(c3ccc(C#N)c4nccnc34)C[C@@H]2C(F)(F)F)C1 (stereo partly drawn) [Example 75, 8-[(3S,4R)-3-[[3-(aminomethyl)-3-methyl-1-piperidyl]methyl]-4-(trifluoromethyl)pyrrolidin-1-yl]quinoxaline-5-carbonitrile]",31
3,"N#Cc1ccc(N2CC(CN3CCC(N)CC3)C3(CC3)C2)c2nccnc12 (stereo not drawn) [Example 68, 8-[7-[(4-Amino-1-piperidyl)methyl]-5-azaspiro[2.4]heptan-5-yl]quinoxaline-5-carbonitrile]",51
4,"N#Cc1ccc(N2CC(CN3CCC(N4CCCCC4)CC3)C3(CC3)C2)c2nccnc12 (stereo not drawn) [Example 11, 8-[7-[[4-(1-Piperidyl)-1-piperidyl]methyl]-5-azaspiro[2.4]heptan-5-yl]quinoxaline-5-carbonitrile]",24
5,"N#Cc1ccc(N2C[C@H](CNC3CCNCC3)[C@@H](C(F)(F)F)C2)c2nccnc12 [Example 71, 8-[(3S,4R)-3-[(4-piperidylamino)methyl]-4-(trifluoromethyl)pyrrolidin-1-yl]quinoxaline-5-carbonitrile]",94
6,"FC(F)(F)c1ccc(N2CC(CN3CCNCC3)C3(CC3)C2)c2nccnc12 (stereo not drawn) [Example 20, 5-[7-(Piperazin-1-ylmethyl)-5-azaspiro[2.4]heptan-5-yl]-8-(trifluoromethyl)quinoxaline]",68
7,"CC1(N)CCN(CC2CN(c3ccc(C#N)c4nccnc34)CC23CC3)CC1 (stereo not drawn) [Example 7, 8-[7-[(4-Amino-4-methyl-1-piperidyl)methyl]-5-azaspiro[2.4]heptan-5-yl]quinoxaline-5-carbonitrile]",43
8,"N#Cc1ccc(N2CC(CNC3CCCNCC3)C3(CC3)C2)c2nccnc12 (stereo not drawn) [Example 39, 8-[7-[(Azepan-4-ylamino)methyl]-5-azaspiro[2.4]heptan-5-yl]quinoxaline-5-carbonitrile]",132
9,"C[C@H]1CN(c2ccc(C#N)c3ncccc23)C[C@@H]1CN1CCC2(CCNC2)C1 (stereo partly drawn) [Example 35, 5-[(3S,4R)-3-(2,7-diazaspiro[4.4]nonan-2-ylmethyl)-4-methyl-pyrrolidin-1-yl]quinoline-8-carbonitrile]",245
10,"N#Cc1ccc(N2C[C@H](CN3CC4(CCCNC4)C3)[C@@H](C(F)(F)F)C2)c2cccnc12 [Example 8, 5-[(3S,7R)-3-(2,8-diazaspiro[3.5]nonan-2-ylmethyl)-4-(trifluoromethyl)pyrrolidin-1-yl]quinoline-8-carbonitrile]",55
11,"N#Cc1ccc(N2C[C@H](CN3CCCC(C(N)=O)C3)[C@@H](C(F)(F)F)C2)c2nccnc12 (stereo partly drawn) [Example 69, 1-[[(3S,4R)-1-(S-cyanoquinoxalin-5-yl)-4-(trifluoromethyl)pyrrolidin-3-yl]methyl]piperidine-3-carboxamide]",729
12,"N#Cc1ccc(N2C[C@H](CN3C4CCC3CC(N)C4)[C@@H](C(F)(F)F)C2)c2nccnc12 (stereo partly drawn) [Example 63, 8-[(3S,4R)-3-[(3-amino-8-azabicyclo[3.2.1]octan-8-yl)methyl]-4-(trifluoromethyl)pyrrolidin-1-yl]quinoxaline-5-carbonitrile]",25
13,"N#Cc1ccc(N2CC(CN3C[C@H]4CNC[C@H]4C3)C3(CC3)C2)c2nccnc12 (stereo partly drawn) [Example 18, 8-[7-[[(3aR,6aS)-2,3,3a,4,6,6a-hexahydro-H-pyrrolo[3,4-c]pyrrol-5-yl]methyl]-5-azaspiro[2.4]heptan-5-yl]quinoxaline-5-carbonitrile]",82
14,"N#Cc1ccc(N2C[C@H](CN3CCC4(CCNC4)C3)[C@@H](C(F)(F)F)C2)c2nccnc12 (stereo partly drawn) [Example 5, 8-[(3S,4R)-3-(2,7-diazaspiro[4.4]nonan-2-ylmethyl)-4-(trifluoromethyl)pyrrolidin-1-yl]quinoxaline-5-carbonitrile]",35
15,"N#Cc1ccc(N2C[C@H](CN3CC4CCC3CN4)[C@@H](C(F)(F)F)C2)c2nccnc12 (stereo partly drawn) [Example 77, 8-[(3S,4R)-3-(2,5-diazabicyclo[2.2.2]octan-2-ylmethyl)-4-(trifluoromethyl)pyrrolidin-1-yl]quinoxaline-5-carbonitrile]",26
16,"C[C@@H]1CN(c2ccc(C(F)(F)F)c3nccnc23)C[C@H]1CN1CCC(N2CCCCC2)CC1 (relative stereo) [Example 33, 5-[Trans-3-methyl-4-[[4-(1-piperidyl)-1-piperidyl]methyl]pyrrolidin-1-yl]-8-(trifluoromethyl)quinoxaline]",245
17,"N#Cc1ccc(N2C[C@H](CN3CCC(N4CCNCC4)CC3)[C@@H](C(F)(F)F)C2)c2cccnc12 [Example 52, 5-[(3S,4R)-3-[(4-piperazin-1-yl-1-piperidyl)methyl]-4-(trifluoromethyl)pyrrolidin-1-yl]quinoline-8-carbonitrile]",88
18,"N#Cc1ccc(N2C[C@H](CN3CCC4(CCNC4)CC3)[C@@H](C(F)(F)F)C2)c2cccnc12 [Example 54, 5-[(3S,4R)-3-(2,8-Diazaspiro[4.5]decan-8-ylmethyl)-4-(trifluoromethyl)pyrrolidin-1-yl]quinoline-8-carbonitrile]",44
19,"CC[C@@H]1CN(c2ccc(C#N)c3ncccc23)C[C@H]1CN1CCC2(CCNC2)C1 (relative stereo) [Example 29, 5-[Trans-3-(2,7-diazaspiro[4.4]nonan-2-ylmethyl)-4-ethyl-pyrrolidin-1-yl]quinoline-8-carbonitrile]",197
20,"N#Cc1ccc(N2C[C@H](CN3CCC4(CCNCC4)CC3)[C@@H](C(F)(F)F)C2)c2cccnc12 [Example 2, 5-[(3S,4R)-3-(3,9-diazaspiro[5.5]undecan-3-ylmethyl)-4-(trifluoromethyl)pyrrolidin-1-yl]quinoline-8-carbonitrile]",57
21,"CC[C@@H]1CN(c2ccc(C#N)c3ncccc23)C[C@H]1CN1CCC2(CCNCC2)CC1 (relative stereo) [Example 15, 5-[Trans-3-(3,9-diazaspiro[5.5]undecan-3-ylmethyl)-4-ethyl-pyrrolidin-1-yl]quinoline-8-carbonitrile]",190
22,"N#Cc1ccc(N2CCC(CN3CCC4(CCNCC4)CC3)C2)c2nccnc12 (stereo not drawn) [Example 37, 8-[3-(3,9-Diazaspiro[5.5]undecan-3-ylmethyl)pyrrolidin-1-yl]quinoxaline-5-carbonitrile]",531
23,"N#Cc1ccc(N2CC(CN3CCC4(CCNC4)C3)C3(CC3)C2)c2cccnc12 (stereo not drawn) [Example 43, 5-[7-(2,7-Diazaspiro[4.4]nonan-2-ylmethyl)-5-azaspiro[2.4]heptan-5-yl]quinoline-8-carbonitrile]",718
24,"C[C@H]1CN(C[C@H]2CN(c3ccc(C#N)c4nccnc34)C[C@@H]2C(F)(F)F)CC[C@H]1N [Example 72, 8-[(3S,4R)-3-[[(3S,4R)-4-amino-3-methyl-1-piperidyl]methyl]-4-(trifluoromethyl)pyrrolidin-1-yl]quinoxaline-5-carbonitrile]",23
